Laboratory results as given in ChEMBL document CHEMBL1121622, “Urinary metabolites of timolol from humans and laboratory animals. Syntheses and beta-adrenergic blocking activities” (1980).

What was measured:
Details in all cases: Canis lupus familiaris
Canis familiaris [1] = test: Beta-adrenergic blocking activity in anesthetized dog, by the inhibition of isoproterenol -induced hypotension after iv administration; No effect at dose up to 1 to 3 mg/kg iv; format: functional, organism-based
Canis familiaris [2] = test: Beta-adrenergic blocking activity in anesthetized dog, by the inhibition of isoproterenol -induced bronchodilatation after iv administration; No effect at dose up to 1 to 3 mg/kg; format: functional, organism-based
Canis familiaris [3] = test: Beta-adrenergic blocking activity in anesthetized dog, by the inhibition of isoproterenol -induced tachycardia after iv administration; No effect at dose up to 1 to 3 mg/kg iv; format: functional, organism-based
Canis familiaris [4] = test: Beta-adrenergic blocking activity in anesthetized dog, by the inhibition of isoproterenol -induced hypotension after iv administration; format: functional
Canis familiaris [5] = test: Beta-adrenergic blocking activity in anesthetized dog, by the inhibition of isoproterenol -induced bronchodilatation after iv administration; format: functional
Canis familiaris [6] = test: Beta-adrenergic blocking activity in anesthetized dog, by the inhibition of isoproterenol -induced tachycardia after iv administration; format: functional
Canis familiaris [7] = test: Beta-adrenergic blocking activity in anesthetized dog, by the inhibition of isoproterenol -induced bronchodilatation after iv administration; No effect at dose up to 1 to 3 mg/kg iv; format: functional, organism-based

Row | SMILES | ED50 (Canis familiaris [1]) | ED50 (Canis familiaris [2]) | ED50 (Canis familiaris [3]) | ED50 (Canis familiaris [4]) | ED50 (Canis familiaris [5]) | ED50 (Canis familiaris [6]) | ED50 (Canis familiaris [7])
1 | CC(C)(C)NCC(O)COc1nsnc1N(CCO)CC(=O)O (configuration not stated) | No effect | No effect | No effect | – | – | – | –
2 | CC(C)(C)NCC(O)COc1nsnc1NCCO (configuration not stated) | – | – | – | 19.9 µg/kg | 5.4 µg/kg | 38.1 µg/kg | –
3 | O=C(O)C(O)COc1nsnc1N1CCOCC1 (configuration not stated) | No effect | – | No effect | – | – | – | No effect
4 | CC(C)(C)NC[C@H](O)COc1nsnc1N1CCOCC1 [TIMOLOL] | – | – | – | 2.8 µg/kg | 0.9 µg/kg | 5.5 µg/kg | –
